# Measured values reported in EP4567040A1, “CRYSTAL FORM OF FUSED TRICYCLIC DERIVATIVE AND PREPARATION METHOD” (Jiangsu Hengrui Pharmaceuticals Co., Ltd., priority 2022, dated 2024).
# Tests used:
# [1] = biological target: T1, CDK6/CyclinD3 (Homo sapiens, UniProt Q00534); assay: Kinase activity assay, mobility shift assay (CDK6/CyclinD3); format: biochemical; conditions: Table 18; read-out: CDK6/D3 IC50
# T1 construct: purchased Carna 04-107
# Method: In vitro CDK kinase activity was tested using a mobility shift assay. […] A proper amount of kinase was added to the 1× kinase buffer to prepare a 2.5× enzyme solution. 5× compound dilutions (1× kinase buffer, 10% DMSO) corresponding to the test concentrations of the compounds were prepared. […] 5 µL of 5× compound dilution and 10 µL of 2.5× enzyme solution were added to reaction wells of a 384-well reaction plate. After thorough mixing, the plate was incubated at room temperature for 10 min. […] The reaction plate was incubated at 28 °C for 60 min (biochemical incubator model: SPX-100B-Z). 30 µL of stop solution was added to the 384-well reaction plate to stop the reactions, and the plate was centrifuged at 1000 rpm for 1 min.
# IC50 values for the compounds were obtained by fitting using XLFit excel add-in version 5.4.0.8. Fitting formula: Y = Bottom + (Top−Bottom)/(1+((IC50/X))^(∧)HillSlope). [formula]
# [2] = biological target: T2, human PXR (Homo sapiens, UniProt O75469); assay: PXR induction assay in DPX2 cells (luciferase reporter); format: cell-based; conditions: for fold induction at 24 h, 0.123 µM: compound concentration 0.123 µM; for fold induction at 24 h, 10 µM: compound concentration 10.0 µM
# T2 construct: host or cells: DPX2 (HepG2 stably transfected)
# T2 sequence (O75469 1-434): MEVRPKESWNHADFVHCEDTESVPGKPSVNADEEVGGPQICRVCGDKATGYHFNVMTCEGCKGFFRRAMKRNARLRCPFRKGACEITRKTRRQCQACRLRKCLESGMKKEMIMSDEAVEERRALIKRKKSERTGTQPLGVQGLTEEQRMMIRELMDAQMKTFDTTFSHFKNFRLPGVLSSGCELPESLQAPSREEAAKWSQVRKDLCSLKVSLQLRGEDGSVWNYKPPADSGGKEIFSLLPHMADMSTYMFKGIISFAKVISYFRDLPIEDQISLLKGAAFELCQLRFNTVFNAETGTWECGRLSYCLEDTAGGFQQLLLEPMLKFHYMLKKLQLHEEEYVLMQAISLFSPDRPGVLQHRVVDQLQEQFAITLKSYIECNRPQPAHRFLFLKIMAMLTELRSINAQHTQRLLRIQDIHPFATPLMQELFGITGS
# Method: • 1. […] The final concentration of DMSO was 0.1%. […] The reagent was gently and well mixed, and the mixture was incubated and well mixed at room temperature for 5 min.
# [3] = test system: DPX2 (HepG2 cells were stably transfected with the human PXR gene and the fluorescent reporter gene) cells; assay: Cell viability in the PXR induction assay (CellTiter-Fluor); format: cell-based
# Method: • 1. The potential of the test compounds to induce the activity of drug metabolism enzymes through in vitro activation of PXR was evaluated. […] […] Experimental procedures • 3.1. Preparation for plating • 1) 50 mL of FBS was added to 450 mL of cell culture medium. • 2) DPX2 cells were cultured in a T-75 culture flask in a 37 °C, 5% CO2 incubator with 95% relative humidity. When covering 80-90% of the bottom of the culture flask, the cells were digested. • 3) The top layer of cells cultured in the T-75 culture flask was washed with 8 mL of PBS, and the PBS was pipetted off. The cells were digested with 3 mL of pancreatin at 37 °C for about 5 min or until they were floating in the pancreatin. 10 mL (excessive) of a serum-containing culture medium was added to neutralize the pancreatin. • 4) The cell suspension was transferred to a conical-bottomed centrifuge tube and centrifuged at 120 g for 10 min. The cells were suspended in the plating culture medium, and the concentration was adjusted to 4 × 10^5 cells/mL. The diluted cells were added to a 96-well cell culture plate at 100 µL/well. The culture plate was placed in an incubator and incubated at 37 °C for 24 h before the PXR activation experiment. • 3.2. […] […] The final concentration of DMSO was 0.1%. 1 µL of DMSO was added to a well containing 1 mL of pre-incubated culture medium as a solvent control. • 2) The cell culture plate was taken out of the incubator, and the culture medium was discarded. The test compounds and the positive compound were added to appropriate wells at 100 µL/well, and each group was tested in duplicate. The cell plate was placed in an incubator and incubated for 24 h. • 3.3. Quantification of PXR activation • 1) After […] of compound treatment, PXR activation was quantified for the culture. • 2) The CellTiter-Fluor™ cell viability assay kit and the One-Glo Luciferase reagent were equilibrated to room temperature. The GF-AFC (10 µL) substrate was added to Assay Buffer (10 mL) to form a 2× reagent, and the reagent was then diluted to 1× with 10 mL of PBS; the ONE-Glo substrate was added to the ONE-Glo Luciferase Assay buffer. • 3) The cell culture plate was taken out of the incubator, and the culture medium in each well was discarded. The plate was washed twice with PBS. The 1× CellTiter-Fluor™ reagent was added to a sterilized reagent reservoir, and 50 µL was transferred to each well using a multi-channel pipette. The plate was incubated at 37 °C for 30 min. • 4) The 96-well cell plate was taken out of the incubator, and the fluorescence in each well was measured using a microplate reader put in the fluorescence mode at an excitation wavelength of 400 nm and an emission wavelength of 505 nm. • 5) The ONE-Glo reagent was poured into a reagent reservoir, and then 50 µL was transferred to each well using a multi-channel pipette. The reagent was gently and well mixed, and the mixture was incubated and well mixed at room temperature for 5 min. After the incubation, the luminescence in each well was measured using a luminometer.
# The calculation formula for cell viability: Percent cell viability (%) = I(sample)/(I(vehicle) × 100 [formula]
# I(sample) represents the fluorescence intensity of the sample, and I(vehicle) represents the fluorescence intensity of 0.1% DMSO to cells.
# [4] = biological target: CYP2C9 (Homo sapiens, UniProt P11712); assay: biochemical
# Method: (§1) The effects of different concentrations of the test compounds on the metabolic reactions of phenacetin (CYP1A2), diclofenac sodium (CYP2C9), S-mephenytoin (CYP2C19), bufuralol hydrochloride (CYP2D6), and midazolam (CYP3A4/5) were assessed by liquid chromatography-tandem mass spectrometry (LC/MS/MS).
# (§2) Then, 200 µL of an acetonitrile solution containing 3% formic acid and 40 nM internal standard verapamil was added, and the mixture was centrifuged at 4000 rpm for 50 min. The mixture was cooled on ice for 20 min and centrifuged at 4000 rpm for 20 min to precipitate protein. 200 µL of the supernatant was taken for LC/MS/MS analysis.
# (§3) The peak area was calculated based on the chromatogram. The residual activity proportion (%) was calculated using the following formula: peak area ratio = peak area of metabolite / peak area of internal standard [formula]
# (§4) The half maximal inhibitory concentrations (IC50) against CYP were calculated using Excel XLfit 5.3.1.3.
# [5] = biological target: CYP2D6 (Homo sapiens, UniProt P10635); assay: biochemical
# Method: as §1, §2, §3, §4
# [6] = compound concentration 0.123 µM
# Sequence of CYP2D6 (P10635 whole entry): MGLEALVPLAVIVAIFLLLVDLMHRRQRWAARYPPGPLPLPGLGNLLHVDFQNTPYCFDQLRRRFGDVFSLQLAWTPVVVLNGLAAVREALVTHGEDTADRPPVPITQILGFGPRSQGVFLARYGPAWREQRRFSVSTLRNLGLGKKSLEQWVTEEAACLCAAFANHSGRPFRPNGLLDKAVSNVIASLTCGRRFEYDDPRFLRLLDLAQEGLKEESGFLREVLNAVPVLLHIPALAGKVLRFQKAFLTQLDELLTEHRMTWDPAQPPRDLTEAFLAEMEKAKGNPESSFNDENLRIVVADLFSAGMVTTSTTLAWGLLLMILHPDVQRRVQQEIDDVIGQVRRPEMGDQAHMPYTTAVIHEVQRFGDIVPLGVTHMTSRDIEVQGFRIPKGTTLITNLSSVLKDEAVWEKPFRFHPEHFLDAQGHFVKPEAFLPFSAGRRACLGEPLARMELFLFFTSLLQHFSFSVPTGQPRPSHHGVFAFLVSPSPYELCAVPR
# Sequence of CYP2C9 (P11712 whole entry): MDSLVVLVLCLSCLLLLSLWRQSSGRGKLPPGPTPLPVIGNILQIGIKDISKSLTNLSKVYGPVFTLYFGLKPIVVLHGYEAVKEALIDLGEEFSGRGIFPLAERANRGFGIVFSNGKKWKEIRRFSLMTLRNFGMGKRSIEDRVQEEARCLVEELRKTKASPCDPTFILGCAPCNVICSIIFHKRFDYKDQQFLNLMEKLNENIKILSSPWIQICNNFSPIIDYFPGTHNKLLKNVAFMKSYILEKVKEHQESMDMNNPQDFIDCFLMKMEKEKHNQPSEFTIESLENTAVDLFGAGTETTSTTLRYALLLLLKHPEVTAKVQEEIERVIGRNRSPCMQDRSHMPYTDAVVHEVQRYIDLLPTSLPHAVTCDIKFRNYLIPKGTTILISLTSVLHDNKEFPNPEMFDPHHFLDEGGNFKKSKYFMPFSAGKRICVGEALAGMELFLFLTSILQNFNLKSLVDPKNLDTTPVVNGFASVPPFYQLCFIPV
# T1 sequence (Q00534 whole entry): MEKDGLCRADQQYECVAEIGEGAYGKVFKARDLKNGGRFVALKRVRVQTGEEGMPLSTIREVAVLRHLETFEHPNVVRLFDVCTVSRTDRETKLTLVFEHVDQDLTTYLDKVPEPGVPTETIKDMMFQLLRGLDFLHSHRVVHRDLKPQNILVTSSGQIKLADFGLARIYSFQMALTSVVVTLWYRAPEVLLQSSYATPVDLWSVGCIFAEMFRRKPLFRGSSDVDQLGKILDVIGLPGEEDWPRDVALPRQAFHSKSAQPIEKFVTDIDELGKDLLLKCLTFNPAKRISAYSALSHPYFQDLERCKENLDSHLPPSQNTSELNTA
# T1 sequence (P30281 whole entry partner): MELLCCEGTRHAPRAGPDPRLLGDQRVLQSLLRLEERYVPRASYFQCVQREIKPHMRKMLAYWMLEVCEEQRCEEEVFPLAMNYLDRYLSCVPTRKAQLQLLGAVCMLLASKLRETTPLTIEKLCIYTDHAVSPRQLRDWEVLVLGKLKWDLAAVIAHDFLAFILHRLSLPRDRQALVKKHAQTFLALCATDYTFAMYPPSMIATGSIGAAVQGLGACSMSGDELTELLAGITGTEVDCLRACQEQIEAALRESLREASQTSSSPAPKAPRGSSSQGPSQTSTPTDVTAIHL
IC50 [1],"fold induction at 24 h, 0.123 µM [2]","fold induction at 24 h, 10 µM [2]",IC50 [4],IC50 [5],SMILES,"Cell viability (%) [3, 6]",Cell viability (%) ([3]; compound concentration 10.0 µM)
105 nM,0.87,1.43,> 30 µM,> 30 µM,"C[C@H]1COc2c(-c3nc(N[C@@H]4CCOC[C@H]4O)ncc3Cl)cc(F)c3nc(C(C)(C)O)n1c23 (single isomer, unassigned) [Isomer 1 with a retention time of 2.078 min]",99.16%,117.18%
228 nM,0.99,1.48,> 30 µM,> 30 µM,"C[C@@H]1COc2c(-c3nc(N[C@@H]4CCOC[C@H]4O)ncc3Cl)cc(F)c3nc(C(C)(C)O)n1c23 (single isomer, unassigned) [Isomer 2 with a retention time of 1.887 min]",102.41%,108.37%
